Each molecule was assayed against T1, H1 (Cavia porcellus, UniProt P31389) (assay: In vitro H1 antihistamine activity assay (inhibition of histamine spasmogenic activity in isolated ileal segments)). Settings: guinea pig ileum, antagonist 5 min before histamine curve; read-out: dissociation constant (Ki).
T1 construct: Ileal segments were removed from male Hartley guinea pigs; from tissue; host or cells: isolated ileal segments of male Hartley guinea pigs
Set-up: species or system male Hartley guinea pigs
Procedure: In vitro assay: Ileal segments were removed from male Hartley guinea pigs (250-350 g) and suspended in 10 ml perfusion baths containing Tyrode's solution. The buffer was equilibrated with 95% O2 and 5% CO2 and maintained at a temperature of 37° C. The tissues were adjusted to 0.5-1 g tension and allowed to equilibrate for 30 min. All responses were recorded isometrically by means of a Grasse smooth muscle transducer and electronic recorder. Drugs were tested for their ability to inhibit the spasmogenic activity of histamine dihydrochloride. Two cumulative control log concentration-response curves for histamine (10^-7 -10^-5 M) were generated for each tissue. Antagonists were added to the bath and allowed to act for 5 min. before another histamine curve was generated.
Drugs were evaluated for their ability to inhibit histamine and thereby shift the response curve to the right. […] These values were used to determine relative potency.

T1 sequence (P31389 whole entry): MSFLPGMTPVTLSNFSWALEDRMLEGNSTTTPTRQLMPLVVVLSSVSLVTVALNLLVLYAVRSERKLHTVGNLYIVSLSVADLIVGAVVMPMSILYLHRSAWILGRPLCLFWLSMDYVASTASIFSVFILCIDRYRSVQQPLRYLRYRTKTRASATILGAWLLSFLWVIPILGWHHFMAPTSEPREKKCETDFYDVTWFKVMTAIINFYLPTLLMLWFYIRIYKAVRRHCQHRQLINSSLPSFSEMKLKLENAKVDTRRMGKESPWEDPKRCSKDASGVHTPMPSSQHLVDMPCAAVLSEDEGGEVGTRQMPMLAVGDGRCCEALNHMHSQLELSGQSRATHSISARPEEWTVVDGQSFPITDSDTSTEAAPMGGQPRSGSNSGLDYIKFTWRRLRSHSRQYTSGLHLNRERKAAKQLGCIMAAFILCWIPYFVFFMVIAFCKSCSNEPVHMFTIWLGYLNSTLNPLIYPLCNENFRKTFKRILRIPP

Compound | Ki [µM]
CN1CC[C@H]2[C@@H](Cc3cc(Cl)cc4c3[C@@H]2c2ncccc2CC4)C1 (relative stereo) [Compound 17, 7-chloro-2,3,4,4a,5,9,10,14b,14c-decahydro-3-methylpyrido[2",3":7',6']-cyclohepta[1',2',3',:4,5]naphtho[2,3-c]pyridine] | 0.001

Same assay, conditions: guinea pig ileum, antagonist 5 min before histamine curve; read-out: pA2 (converted)

Compound | Kb [µM]
CN1CC[C@H]2[C@@H](Cc3cc(Cl)cc4c3[C@@H]2c2ncccc2CC4)C1 (relative stereo) [Compound 17, 7-chloro-2,3,4,4a,5,9,10,14b,14c-decahydro-3-methylpyrido[2",3":7',6']-cyclohepta[1',2',3',:4,5]naphtho[2,3-c]pyridine] | 0.00141

The molecules below were run on PAF-induced platelet aggregation (assay: In vitro PAF antagonism assay (inhibition of PAF-induced platelet aggregation in platelet-rich plasma)). Settings: at 50 μM, human PRP, PAF 1-5×10^-8 M.
Assay type: cell-based
Procedure: In vitro Assay: Preparation of platelet-rich plasma (PRP): Human blood (50 ml) is collected from healthy male donors in an anticoagulant solution (5 ml) containing sodium citrate (3.8%) and dextrose (2%). Blood is centrifuged at 110 x g for 15 min. and the supematant (PRP) carefully transferred into a polypropylene tube. Platelet-poor-plasma (PPP) is prepared by centrifuging PRP at 12,000 x g for 2 min. (Beckman Microfuge B). PRP is used within 3 hours of drawing the blood.
Platelet Aggregation Assay: When an aggregating agent such as PAF is added to PRP, platelets aggregate. The aggregation assays are performed using a dual-channel aggregometer (Model 440, Chrono-Log Corp., Havertown, Pa.). PRP (0.45 ml) in aggregometer cuvettes is continually stirred (37° C.). Solutions of test compounds or vehicle are added to the PRP, and after incubation for 2 min., 10-15 μl aliquots of PAF solution are added so as to achieve a final concentration of 1-5×10^-8 M. Incubations are continued until the increase in light transmission reaches a maximum (usually 2 min). Values for inhibition are calculated by comparing maximal aggregation obtained in the absence and the presence of the compound. For each experiment, a standard PAF antagonist such as alprazolam is used as a positive internal control. The inhibitory concentration (IC50) is the concentration of compound in micromoles at which 50% of the aggregation is inhibited, as measured by the light transmission through each sample of PRP as compared to PPP.

Compound | inhibition at 50 µM [%]
CC(=O)N1CC[C@H]2C(=O)c3cc(Cl)cc4c3[C@H](c3ncccc3CC4)[C@H]2C1 (relative stereo) [Compound 6A] | 33
CC(=O)N1CC[C@H]2C(=Cc3cc(Cl)cc4c3[C@@H]2c2ncccc2CC4)C1 (relative stereo) [Compound 13] | 23
CN1CC[C@@H]2[C@H]3c4ncccc4CCc4cc(Cl)cc(c43)C(=O)[C@@H]2C1 (relative stereo) [Compound 11A] | 47
CN1CC[C@@H]2[C@H]3c4ncccc4CCc4cc(Cl)cc(c43)C(=O)[C@H]2C1 (relative stereo) [Compound 11B] | 4
CC(=O)N1CC[C@@H]2C(=O)c3cc(Cl)cc4c3[C@H](c3ncccc3CC4)[C@H]2C1 (relative stereo) [Compound 6B] | 49
CC(=O)N1CC[C@@H]2[C@H]3c4ncccc4CCc4cc(Cl)cc(c43)C(=O)[C@@H]2C1 (relative stereo) [Compound 10A] | 15

Same assay, conditions: human PRP, PAF 1-5×10^-8 M

Compound | IC50 [µM]
CN1CC[C@H]2C(=Cc3cc(Cl)cc4c3[C@@H]2c2ncccc2CC4)C1 (relative stereo) [Compound 16] | ~5.5
CC(=O)N1CC[C@H]2[C@@H](Cc3cc(Cl)cc4c3[C@@H]2c2ncccc2CC4)C1 (relative stereo) [Compound 14B] | ~300
O=C(c1cc[n+]([O-])cc1)N1CC[C@H]2[C@@H](Cc3cc(Cl)cc4c3[C@@H]2c2ncccc2CC4)C1 (relative stereo) [Compound 20] | ~2.8
CN1CC[C@H]2[C@@H](Cc3cc(Cl)cc4c3[C@@H]2c2ncccc2CC4)C1 (relative stereo) [Compound 17, 7-chloro-2,3,4,4a,5,9,10,14b,14c-decahydro-3-methylpyrido[2",3":7',6']-cyclohepta[1',2',3',:4,5]naphtho[2,3-c]pyridine] | ~38
CC(=O)N1CC[C@H]2[C@H](Cc3cc(Cl)cc4c3[C@@H]2c2ncccc2CC4)C1 (relative stereo) [Compound 14A] | ~3000

Reference: patent US5648360A, “Pentacyclic antihistamines” (Schering Corporation, priority 1994, dated 1997)
